What was measured:
hiCE = biological target: T1, hiCE (Homo sapiens, UniProt O00748); format: cell-based; settings: U373MG cells expressing hiCE; irinotecan as substrate
T1 sequence (O00748 27-559): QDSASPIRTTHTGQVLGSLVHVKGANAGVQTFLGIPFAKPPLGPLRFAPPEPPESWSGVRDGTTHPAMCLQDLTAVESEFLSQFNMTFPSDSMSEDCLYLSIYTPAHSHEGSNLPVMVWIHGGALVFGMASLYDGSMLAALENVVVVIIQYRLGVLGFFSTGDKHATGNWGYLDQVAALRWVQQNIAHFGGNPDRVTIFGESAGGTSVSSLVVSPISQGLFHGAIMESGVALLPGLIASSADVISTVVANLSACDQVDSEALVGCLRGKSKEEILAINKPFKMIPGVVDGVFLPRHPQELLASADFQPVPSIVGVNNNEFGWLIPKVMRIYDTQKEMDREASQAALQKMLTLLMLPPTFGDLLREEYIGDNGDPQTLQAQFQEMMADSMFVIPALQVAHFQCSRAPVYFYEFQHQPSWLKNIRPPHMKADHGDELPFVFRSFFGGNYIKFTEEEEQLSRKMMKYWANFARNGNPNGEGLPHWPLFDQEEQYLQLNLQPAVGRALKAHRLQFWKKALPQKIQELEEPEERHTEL

hCE1 = biological target: T2, hCE1 (Homo sapiens, UniProt P23141); settings: read-out: Ki with hCE1; cited from earlier work
T2 sequence (P23141 18-567): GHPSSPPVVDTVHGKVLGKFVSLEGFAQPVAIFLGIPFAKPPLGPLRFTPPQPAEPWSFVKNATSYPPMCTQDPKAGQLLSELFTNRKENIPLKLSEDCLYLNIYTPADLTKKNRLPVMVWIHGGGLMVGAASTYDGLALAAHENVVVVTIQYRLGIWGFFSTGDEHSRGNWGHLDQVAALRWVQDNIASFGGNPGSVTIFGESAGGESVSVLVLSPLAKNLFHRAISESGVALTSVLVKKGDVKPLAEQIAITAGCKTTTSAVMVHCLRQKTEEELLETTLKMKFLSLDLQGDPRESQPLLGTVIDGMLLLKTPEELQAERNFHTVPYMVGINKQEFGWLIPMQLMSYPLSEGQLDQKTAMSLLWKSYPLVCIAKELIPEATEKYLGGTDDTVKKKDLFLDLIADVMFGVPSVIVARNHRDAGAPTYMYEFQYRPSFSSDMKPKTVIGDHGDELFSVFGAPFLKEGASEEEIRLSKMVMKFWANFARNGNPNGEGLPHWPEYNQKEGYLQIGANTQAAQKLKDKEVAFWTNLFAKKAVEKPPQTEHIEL

SMILES | inhibition of hiCE in cells (loss in 7-ethyl-10-hydroxycamptothecin production) (hiCE) | Ki (hCE1) [nM]
Cc1ccc(N(C)C2=CC(=O)C(=O)c3ccccc32)cc1 [Compound 18, 4-((4-Methylphenyl)(methyl)amino)naphthalene-1,2-dione] | less than 23% | 
Cc1cccc2c3c(ccc12)C1=C(C(=O)C3=O)[C@@H](C)CO1 [dihydrotanshinone] |  | 398
COc1ccc(N(C)C2=CC(=O)C(=O)c3ccccc32)cc1 [Compound 17, 4-((4-Methoxyphenyl)(methyl)amino)naphthalene-1,2-dione] | less than 23% | 

Reference: PMC5556379 (Journal of medicinal chemistry, 2017)
